ED50, ED (30 mm Hg) and IC50 data for one compound are collected here from patent EP0955294B1, “Imidazolyl-alkenoic acid” (SMITHKLINE BEECHAM CORPORATION, priority 1989, dated 1990).

SMILES strings stand for the structures. Like-named read-outs stand apart in the source and are kept apart here.

The subject of experiment [1] is pressor response to exogenous angiotensin II. Put plainly: inhibition of pressor response to angiotensin II in conscious rats. It is filed as in vivo. The settings on record: Rattus norvegicus, dose producing 50% inhibition of the control response to angiotensin II, read-out: IC50 (the source's name). On the procedure:
(§1) Angiotensin II antagonist activity of the compounds of Formula (I) is assessed by in vitro and in vivo methods. In vitro antagonist activity is determined by the ability of the compounds to compete with ^125I-angiotensin II for binding to vascular angiotensin It receptors and by their ability to antagonize the contractile response to angiotensin II in the isolated rabbit aorta. In vivo activity is evaluated by the efficacy of the compounds to inhibit the pressor response to exogenous angiotensin II in conscious rats and to lower blood pressure in a rat model of […] hypertension.
Rats are prepared with indwelling femoral arterial and venous catheters and a stomach tube (Gellai et al., Kidney Int. 15:419, 1979). Two to three days following surgery the rats are placed in a restrainer and blood pressure is continuously monitored from the arterial catheter with a pressure transducer and recorded on a polygraph. The change in mean arterial pressure in response to intravenous injections of […] angiotensin II is compared at various time points prior to and following the administration of the compounds intravenously or orally at doses of 0.1 to 300 mg/kg. The dose of compound needed to produce 50% inhibition of the control response to angiotensin II (IC50) is used to estimate the potency of the compounds.

Experiment [2] deals with conscious rats made renin-dependent hypertensive. Nature of the experiment: antihypertensive activity in renal artery ligated (renin-dependent hypertensive) rats. It is filed as in vivo. The settings on record: dose needed to reduce mean arterial pressure by 30 mm Hg. The procedure: as §1
The antihypertensive activity of the compounds is measured by their ability to reduce mean arterial pressure in conscious rats made renin-dependent hypertensive by ligation of the left renal artery (Cangiano et al., J. Pharmacol. Exp. Ther. 208:310, 1979). Renal artery ligated rats are prepared with indwelling catheters as described above. Seven to eight days following renal artery ligation, the time at which plasma renin levels are highest, the conscious rats are placed in restrainers and mean arterial pressure is continuously recorded prior to and following the administration of the compounds intravenously or orally. The dose of compound needed to reduce mean arterial pressure by 30 mm Hg (IC50) is used as an estimate of potency.

Take `CCCCc1ncc(/C=C(\Cc2cccs2)C(=O)O)n1Cc1ccccc1Cl` [Example 1, (E)-3-[2-n-Butyl-1-{(2-chlorophenyl)methyl}-1H-imidazol-5-yl]-2-(2-thienyl)methyl-2-propenoic Acid]: the ED50 in experiment [1] (iv, i.v.) was 3.6 mg/kg; in experiment [1] (po, orally), 44 mg/kg. Besides, the ED (30 mm Hg) in experiment [2] (Rattus norvegicus, po, orally, read-out: IC50) was 8 mg/kg. Further, in experiment [2] (i.v.), the IC50 turned out to be 1.80 mg/kg.
